From ChEMBL document CHEMBL3045591, “Imidazole as an anti-epileptic: an overview” (Med Chem Res, 2012)

Columns and labels:
[1] = Toxicity in po dosed Rattus norvegicus albino (rat); type: organism-based; settings: in vivo
Mus musculus [2] = organism: Mus musculus; experiment: Anticonvulsant activity in Mus musculus (mouse) assessed as protection against metrazole-induced seizures; type: functional
Mus musculus [3] = organism: Mus musculus; experiment: Anticonvulsant activity in acute seizure Mus musculus (mouse) model assessed as protection against maximal electroshock-induced seizures; type: functional
Mus musculus [4] = organism: Mus musculus; experiment: Anticonvulsant activity in Mus musculus (mouse) assessed as protection against maximal electroshock-induced seizures; type: functional
Mus musculus [5] = experiment: Anticonvulsant activity in Mus musculus (mouse) assessed protection against subcutaneous pentylenetetrazole-induced seizures; type: functional
Mus musculus [6] = organism: Mus musculus; experiment: Anticonvulsant activity against Mus musculus DBA/2 (mouse) assessed as protection against sound-induced seizure; type: functional; settings: read-out: MED
Mus musculus [7] = experiment: Anticonvulsant activity in Mus musculus (mouse) assessed as protection against maximal electroshock-induced seizures compound co-administered with losartan 50 mg/kg, ip; type: functional; settings: route intraperitoneal

## COc1cccc(-c2nc(-c3ccccc3)c(-c3ccccc3)[nH]2)c1
[1]
  MTD: ≤ 5000 mg/kg

## Cc1ncc(C(=O)Oc2ccccc2)n1C(C)c1ccccc1.O=[N+]([O-])O (stereo not given)
Mus musculus [2]
  ED50: 68 mg/kg

## CCCOC(=O)NC1=NCC(c2ccccc2F)N1C (stereo not given)
Mus musculus [3]
  ED50: 23 mg/kg

## CC(C)OC(=O)NC1=NCC(c2ccccc2F)N1C (stereo not given)
Mus musculus [3]
  ED50: 23 mg/kg

## Clc1ccc(-c2nc(Cn3ccnc3)cs2)cc1
Mus musculus [4]
  Activity: 33%
Mus musculus [5]
  Activity: 33%

## COC(=O)c1cnc(C)n1C(C)c1ccccc1.O=[N+]([O-])O (stereo not given)
Mus musculus [2]
  ED50: 68 mg/kg

## O=[N+]([O-])c1cc2nc(O)c(O)nc2nc1-n1ccnc1
Mus musculus [6]
  minimal effective dose: 10 mg/kg

## CCCC(CCC)C(=O)O [VALPROIC ACID]
Mus musculus [4]; Mus musculus
  ED50: 250 mg/kg
Mus musculus [7]
  ED50: 195 mg/kg
